Results taken from PubChem BioAssay (NCI).
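A five-concentration, 48-hour dose response in 96-well plates underlies each endpoint, interpolated linearly between surrounding concentrations. The concentration for full growth arrest is given as TGI.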

Legend:
Assay in all cases: growth of human tumour cells (NCI), 48 h
786-0 renal = test system: 786-0 renal
A498 renal = test system: A498 renal
A549 NSCLC = test system: A549 NSCLC
ACHN renal = test system: ACHN renal
BT-549 breast = test system: BT-549 breast
CAKI-1 renal = test system: CAKI-1 renal
CCRF-CEM leukemia = test system: CCRF-CEM leukemia
DU-145 prostate = test system: DU-145 prostate
EKVX NSCLC = test system: EKVX NSCLC
HCC-2998 colon = test system: HCC-2998 colon
HCT-116 colon = test system: HCT-116 colon
HCT-15 colon = test system: HCT-15 colon
HL-60(TB) leukemia = test system: HL-60(TB) leukemia
HOP-62 NSCLC = test system: HOP-62 NSCLC
HOP-92 NSCLC = test system: HOP-92 NSCLC
HS 578T breast = test system: HS 578T breast
HT29 colon = test system: HT29 colon
IGROV1 ovarian = test system: IGROV1 ovarian
K-562 leukemia = test system: K-562 leukemia
KM12 colon = test system: KM12 colon
LOX IMVI melanoma = test system: LOX IMVI melanoma
M14 melanoma = test system: M14 melanoma
MALME-3M melanoma = test system: MALME-3M melanoma
MCF7 breast = test system: MCF7 breast
MDA-MB-231 breast = test system: MDA-MB-231 breast
MDA-MB-435 = test system: MDA-MB-435
MDA-N = test system: MDA-N
MOLT-4 leukemia = test system: MOLT-4 leukemia
NCI-H226 lung = test system: NCI-H226 lung
NCI-H23 lung = test system: NCI-H23 lung
NCI-H460 lung = test system: NCI-H460 lung
NCI-H522 lung = test system: NCI-H522 lung
NCI/ADR-RES ovarian = test system: NCI/ADR-RES ovarian
OVCAR-3 ovarian = test system: OVCAR-3 ovarian
OVCAR-4 ovarian = test system: OVCAR-4 ovarian
OVCAR-5 ovarian = test system: OVCAR-5 ovarian
OVCAR-8 ovarian = test system: OVCAR-8 ovarian
PC-3 prostate = test system: PC-3 prostate
RPMI-8226 leukemia = test system: RPMI-8226 leukemia
RXF 393 renal = test system: RXF 393 renal
SF-268 CNS = test system: SF-268 CNS
SF-295 CNS = test system: SF-295 CNS
SF-539 CNS = test system: SF-539 CNS
SK-MEL-2 melanoma = test system: SK-MEL-2 melanoma
SK-MEL-28 melanoma = test system: SK-MEL-28 melanoma
SK-MEL-5 melanoma = test system: SK-MEL-5 melanoma
SK-OV-3 ovarian = test system: SK-OV-3 ovarian
SN12C renal = test system: SN12C renal
SNB-19 CNS = test system: SNB-19 CNS
SNB-75 CNS = test system: SNB-75 CNS
SW-620 colon = test system: SW-620 colon
TK-10 renal = test system: TK-10 renal
U251 CNS = test system: U251 CNS
UACC-257 melanoma = test system: UACC-257 melanoma
UACC-62 melanoma = test system: UACC-62 melanoma
UO-31 renal = test system: UO-31 renal
COLO 205 colon = test system: COLO 205 colon
SR leukemia = test system: SR leukemia
T-47D breast = test system: T-47D breast

## COc1ccc(/C=C/c2sc3ccccc3[n+]2CCCCI)cc1OC
786-0 renal
  TGI: > 10 µM
A498 renal
  TGI: > 10 µM
A549 NSCLC
  TGI: > 10 µM
ACHN renal
  TGI: > 10 µM
BT-549 breast
  TGI: > 10 µM
CAKI-1 renal
  TGI: > 10 µM
CCRF-CEM leukemia
  TGI: > 10 µM
DU-145 prostate
  TGI: > 10 µM
EKVX NSCLC
  TGI: > 10 µM
HCC-2998 colon
  TGI: > 10 µM
HCT-116 colon
  TGI: > 10 µM
HCT-15 colon
  TGI: > 10 µM
HL-60(TB) leukemia
  TGI: 7.48 µM
HOP-62 NSCLC
  TGI: > 10 µM
HOP-92 NSCLC
  TGI: > 10 µM
HS 578T breast
  TGI: > 10 µM
HT29 colon
  TGI: > 10 µM
IGROV1 ovarian
  TGI: > 10 µM
K-562 leukemia
  TGI: > 10 µM
KM12 colon
  TGI: > 10 µM
LOX IMVI melanoma
  TGI: > 10 µM
M14 melanoma
  TGI: > 10 µM
MALME-3M melanoma
  TGI: > 10 µM
MCF7 breast
  TGI: > 10 µM
MDA-MB-231 breast
  TGI: > 10 µM
MDA-MB-435
  TGI: > 10 µM
MDA-N
  TGI: > 10 µM
MOLT-4 leukemia
  TGI: > 10 µM
NCI-H226 lung
  TGI: > 10 µM
NCI-H23 lung
  TGI: > 10 µM
NCI-H460 lung
  TGI: > 10 µM
NCI-H522 lung
  TGI: > 10 µM
NCI/ADR-RES ovarian
  TGI: > 10 µM
OVCAR-3 ovarian
  TGI: > 10 µM
OVCAR-4 ovarian
  TGI: > 10 µM
OVCAR-5 ovarian
  TGI: > 10 µM
OVCAR-8 ovarian
  TGI: > 10 µM
PC-3 prostate
  TGI: > 10 µM
RPMI-8226 leukemia
  TGI: > 10 µM
RXF 393 renal
  TGI: > 10 µM
SF-268 CNS
  TGI: > 10 µM
SF-295 CNS
  TGI: > 10 µM
SF-539 CNS
  TGI: > 10 µM
SK-MEL-2 melanoma
  TGI: 9.47 µM
SK-MEL-28 melanoma
  TGI: > 10 µM
SK-MEL-5 melanoma
  TGI: > 10 µM
SK-OV-3 ovarian
  TGI: > 10 µM
SN12C renal
  TGI: > 10 µM
SNB-19 CNS
  TGI: > 10 µM
SNB-75 CNS
  TGI: > 10 µM
SW-620 colon
  TGI: > 10 µM
TK-10 renal
  TGI: > 10 µM
U251 CNS
  TGI: > 10 µM
UACC-257 melanoma
  TGI: > 10 µM
UACC-62 melanoma
  TGI: > 10 µM
UO-31 renal
  TGI: > 10 µM

## Cc1cccc2cc3c(ccc4ccccc43)c[n+]12
786-0 renal
  TGI: > 100 µM
A549 NSCLC
  TGI: > 100 µM
ACHN renal
  TGI: > 100 µM
BT-549 breast
  TGI: 54.1 µM
CCRF-CEM leukemia
  TGI: > 100 µM
COLO 205 colon
  TGI: 31.6 µM
DU-145 prostate
  TGI: > 100 µM
EKVX NSCLC
  TGI: > 100 µM
HCC-2998 colon
  TGI: 42.7 µM
HCT-116 colon
  TGI: > 100 µM
HCT-15 colon
  TGI: > 100 µM
HL-60(TB) leukemia
  TGI: > 100 µM
HOP-62 NSCLC
  TGI: > 100 µM
HS 578T breast
  TGI: 24.6 µM
HT29 colon
  TGI: > 100 µM
IGROV1 ovarian
  TGI: > 100 µM
K-562 leukemia
  TGI: > 100 µM
KM12 colon
  TGI: 32 µM
LOX IMVI melanoma
  TGI: > 100 µM
MALME-3M melanoma
  TGI: 5.22 µM
MCF7 breast
  TGI: > 100 µM
MDA-MB-231 breast
  TGI: > 100 µM
MDA-MB-435
  TGI: > 100 µM
MDA-N
  TGI: > 100 µM
MOLT-4 leukemia
  TGI: > 100 µM
NCI-H23 lung
  TGI: 58 µM
NCI-H460 lung
  TGI: 93.7 µM
NCI-H522 lung
  TGI: 38.2 µM
NCI/ADR-RES ovarian
  TGI: > 100 µM
OVCAR-3 ovarian
  TGI: 16.9 µM
OVCAR-5 ovarian
  TGI: > 100 µM
OVCAR-8 ovarian
  TGI: > 100 µM
PC-3 prostate
  TGI: > 100 µM
RPMI-8226 leukemia
  TGI: > 100 µM
RXF 393 renal
  TGI: > 100 µM
SF-268 CNS
  TGI: 14.2 µM
SF-295 CNS
  TGI: 41.5 µM
SF-539 CNS
  TGI: 66.2 µM
SK-MEL-2 melanoma
  TGI: 48.3 µM
SK-MEL-28 melanoma
  TGI: 34.3 µM
SK-MEL-5 melanoma
  TGI: 22.1 µM
SN12C renal
  TGI: 20.3 µM
SNB-19 CNS
  TGI: 50.9 µM
SNB-75 CNS
  TGI: 21.8 µM
SR leukemia
  TGI: > 100 µM
SW-620 colon
  TGI: > 100 µM
TK-10 renal
  TGI: > 100 µM
U251 CNS
  TGI: 40.6 µM
UACC-257 melanoma
  TGI: 37.9 µM
UACC-62 melanoma
  TGI: 63.1 µM
UO-31 renal
  TGI: > 100 µM

## COC(=O)c1cc2c3c(cc(N(C)C)c2[nH]1)N(C(=O)c1cc2cc(OC)c(OC)c(OC)c2[nH]1)CC3CCl (stereo not given)
786-0 renal
  TGI: 0.00487 µM
A498 renal
  TGI: 0.0292 µM
BT-549 breast
  TGI: 0.193 µM
CAKI-1 renal
  TGI: < 0.0025 µM
CCRF-CEM leukemia
  TGI: 0.0538 µM
COLO 205 colon
  TGI: 0.0131 µM
DU-145 prostate
  TGI: < 0.0025 µM
EKVX NSCLC
  TGI: 2.79 µM
HCC-2998 colon
  TGI: 0.0144 µM
HCT-116 colon
  TGI: < 0.0025 µM
HCT-15 colon
  TGI: 19.2 µM
HOP-62 NSCLC
  TGI: 0.00774 µM
HOP-92 NSCLC
  TGI: 0.756 µM
HT29 colon
  TGI: > 25 µM
K-562 leukemia
  TGI: 0.788 µM
KM12 colon
  TGI: 0.0118 µM
M14 melanoma
  TGI: 0.00848 µM
MALME-3M melanoma
  TGI: < 0.0025 µM
MCF7 breast
  TGI: 2.42 µM
MDA-MB-231 breast
  TGI: 0.0132 µM
MDA-MB-435
  TGI: < 0.0025 µM
MDA-N
  TGI: < 0.0025 µM
MOLT-4 leukemia
  TGI: 0.318 µM
NCI-H226 lung
  TGI: 0.0223 µM
NCI-H460 lung
  TGI: 0.323 µM
NCI-H522 lung
  TGI: 0.0113 µM
NCI/ADR-RES ovarian
  TGI: 0.0548 µM
OVCAR-3 ovarian
  TGI: 0.0136 µM
OVCAR-4 ovarian
  TGI: 0.00605 µM
OVCAR-5 ovarian
  TGI: 0.25 µM
PC-3 prostate
  TGI: 25 µM
RPMI-8226 leukemia
  TGI: 0.0324 µM
RXF 393 renal
  TGI: < 0.0025 µM
SF-268 CNS
  TGI: 0.127 µM
SF-295 CNS
  TGI: 0.226 µM
SK-MEL-2 melanoma
  TGI: 0.0659 µM
SK-MEL-28 melanoma
  TGI: 0.0143 µM
SK-MEL-5 melanoma
  TGI: 0.00591 µM
SK-OV-3 ovarian
  TGI: 0.101 µM
SN12C renal
  TGI: 0.384 µM
SNB-19 CNS
  TGI: 0.0814 µM
SNB-75 CNS
  TGI: 0.00422 µM
T-47D breast
  TGI: 0.642 µM
UACC-62 melanoma
  TGI: 0.0565 µM

## N#Cc1c(NC(=S)Nc2ccc(Cl)cc2)sc2c1CCCC2
A498 renal
  TGI: > 100 µM
ACHN renal
  TGI: > 100 µM
BT-549 breast
  TGI: > 100 µM
CAKI-1 renal
  TGI: > 100 µM
COLO 205 colon
  TGI: > 100 µM
DU-145 prostate
  TGI: > 100 µM
EKVX NSCLC
  TGI: > 100 µM
HCC-2998 colon
  TGI: > 100 µM
HCT-116 colon
  TGI: > 100 µM
HCT-15 colon
  TGI: > 100 µM
HL-60(TB) leukemia
  TGI: > 100 µM
HT29 colon
  TGI: > 100 µM
IGROV1 ovarian
  TGI: > 100 µM
K-562 leukemia
  TGI: > 100 µM
KM12 colon
  TGI: > 100 µM
LOX IMVI melanoma
  TGI: > 100 µM
MALME-3M melanoma
  TGI: > 100 µM
MCF7 breast
  TGI: > 100 µM
MDA-MB-231 breast
  TGI: > 100 µM
MDA-MB-435
  TGI: > 100 µM
MDA-N
  TGI: > 100 µM
MOLT-4 leukemia
  TGI: 33.8 µM
NCI-H226 lung
  TGI: > 100 µM
NCI-H23 lung
  TGI: > 100 µM
NCI-H522 lung
  TGI: > 100 µM
NCI/ADR-RES ovarian
  TGI: > 100 µM
OVCAR-3 ovarian
  TGI: > 100 µM
OVCAR-4 ovarian
  TGI: > 100 µM
OVCAR-5 ovarian
  TGI: > 100 µM
OVCAR-8 ovarian
  TGI: > 100 µM
PC-3 prostate
  TGI: > 100 µM
RPMI-8226 leukemia
  TGI: 67.9 µM
RXF 393 renal
  TGI: > 100 µM
SF-268 CNS
  TGI: > 100 µM
SF-295 CNS
  TGI: > 100 µM
SK-MEL-2 melanoma
  TGI: > 100 µM
SK-MEL-28 melanoma
  TGI: > 100 µM
SK-MEL-5 melanoma
  TGI: > 100 µM
SN12C renal
  TGI: 50.4 µM
SNB-19 CNS
  TGI: > 100 µM
SNB-75 CNS
  TGI: > 100 µM
SR leukemia
  TGI: 89.1 µM
SW-620 colon
  TGI: > 100 µM
T-47D breast
  TGI: > 100 µM
TK-10 renal
  TGI: > 100 µM
U251 CNS
  TGI: > 100 µM
UACC-257 melanoma
  TGI: > 100 µM
UACC-62 melanoma
  TGI: > 100 µM
UO-31 renal
  TGI: > 100 µM
